“And” between values parts separate entries of the source, which are not always exact repeats. Equal values may be shown once.
Tests used:
[1] = cited from earlier work
[2] = biological target: 5-HT2A receptors (Homo sapiens, UniProt P28223); conditions: Rickli et al., 2017; cited from earlier work
[3] = system: IMR-90; assay: Beta Gal assay, UVB induced senescence; format: cell-based
Excerpt: Seeding occurred on Day 1, with pretreatment on Day 2, and UVB-induction and retreatment on Day 3, SABG on Day 8, and microscopy (SABG) on Day 9. […] Results for Example 6 can be seen in FIGS. 19A-27D, and Tables 4, 5, and 6 below.

[4] = system: BDNF; conditions: only the lower dose, 25 mg daily, 14-day period; cited from earlier work
[5] = system: 5-HT2A; assay: 5-HT2A receptor expression in ARPE-19 cells (immunofluorescence); format: cell-based; conditions: acute and chronic psilocin exposure; decreasing tendency
Procedure: (§1) First, the present inventors assessed the expression of three NMDAR subunits (NMDAR1, NMDAR2A, NMDAR2B) and two 5-HT2 subtypes (5-HT2A, 5-HT2C) by immunofluorescence coupled to confocal microscopy. 7,500 cells/well were plated in a 24-well plate on sterile glass coverslips. The next day, the immunofluorescence analysis was performed. The following primary antibodies were used: anti-NMDAR1A (Abcam, ab68144), NMDAR2A (Bioss, bs-3507R-TR), NMDAR2B (Bioss, bs-0222R-TR), 5-HT2A (Bioss, bs-12049R), 5-HT2C (Bioss, 2959R), and the secondary antibody goat anti-rabbit IgG (GeneTex, GTX213110-04). The images of the immunostained cells were acquired by means of a confocal microscope Zeiss LSM 800, using a 63× magnification and can be seen in FIGS. 9A-9E. ImageJ software was used to quantify the intensity of the fluorescent signal.
(§2) 7,500 cells/well were plated in a 24-well plate on sterile glass coverslips. […] After 6 days an immunofluorescence analysis coupled to confocal microscopy was performed with the primary and secondary antibodies described above.

[6] = system: corneal cells; assay: Psilocin cytotoxicity in corneal cells; format: cell-based, human; conditions: 0.001 to 10 μM, assessed 3 days after treatment
Procedure: (§3) Cell cultures. Human corneal epithelial (HCE) cells were obtained from the American Type Culture Collection. U937 human monocytes cell line was purchased from Thermo Scientific.
(§4) Primary corneal keratocytes were obtained after digestion of human corneas from healthy donors purchased at the Veneto Eye Bank Foundation (Venezia Mestre, Italy). After the corneal epithelium was removed with a cell scraper and the endothelium was enzymatically detached using 0.05% trypsin/0.02% EDTA-solution for 15 minutes at 37° C., the stroma was then cut into 3- to 4-mm pieces and treated overnight at 37° C. with type I collagenase (100 U/ml) and hyaluronidase (2 mg/ml) solutions in Dulbecco's Modified Eagle's Medium (DMEM). Isolated keratocytes were then seeded in monolayer and cultured at 37° C. with 5% CO2 in DMEM containing 10% FBS, 1% penicillin-streptomycin (P/S) and 1% L-glutamine (otherwise known as complete medium). Expanded cells were trypsinized and sub-cultured at a ratio of 1:2. Corneal cells were grown under standard cell culture practices in complete DMEM medium at 37° C., in a 5% CO2 atmosphere. U937 human monocytes were grown in suspension in complete RPMI 1640 medium and passaged twice weekly by dilution using a seeding density of 10^6 cells/ml.
(§5) With this procedure, only viable cells with functioning mitochondria can oxidize MTT to a violet-red reaction product.

[7] = system: NMDAR2A; assay: NMDAR2A protein expression in ARPE-19 cells (immunofluorescence); format: cell-based
Procedure: as §1, §2

[8] = system: 5-HT2C; assay: 5-HT2C receptor expression in ARPE-19 cells (immunofluorescence); format: cell-based; conditions: chronic treatment with psilocin
Procedure: as §1, §2

[9] = system: IL-12; assay: IL-12 expression in keratocytes exposed to CM of activated U937 (qPCR); format: cell-based, human; conditions: 0.1 and 1 μM psilocin, 4 and 10 h
Procedure: (§6) Anti-inflammatory and anti-fibrotic effects evaluations. Cytokines expression was analyzed in human keratocytes and HCE cells exposed to the inflammatory conditioned medium (CM) of activated U937 cells.
(§7) U937 human monocytes were differentiated to macrophages by treatment with 50 ng/mL phorbol myristate acetate (PMA) for 48 h followed by the exposure to […] lipopolysaccharide (LPS) for 1 hour. Cells were then washed and cultivated with complete RPMI for 24 hours to produce the inflammatory CM. The CM was collected, filtered and stored at −80° C. The differentiation of monocytes to macrophages was examined under an inverted phase-contrast microscope and the mRNA expression of the macrophage differentiation marker CD68 was analysed by quantitative real time PCR (qPCR). Cells were then washed and cultivated with complete DMEM for 24 hours to produce the CM. The CM was collected, filtered and stored at −80° C.
(§8) At 4 and 10 or at 4, 10 and 24 h cells were detached […] extracted to analyze the expression of pro-inflammatory cytokines (IL-1β, TNF-α, IL-8, IL-12, IFNγ). The expression of type collagen I and VEGF was analysed on mRNA extracted from keratocyte cell cultures. The experiments were performed three times.

[10] = after ingestion of psilocybin mushrooms; cited from earlier work
[11] = system: NMDAR2B; assay: NMDAR2B protein expression in ARPE-19 cells (immunofluorescence); format: cell-based
Procedure: as §1, §2

[12] = system: keratocytes; assay: Cell viability, MTT test, keratocytes; format: cell-based, human
Procedure: as §4, §5

[13] = system: TNF-α; assay: TNF-α expression in keratocytes exposed to CM of activated U937 (qPCR); format: cell-based, human; conditions: 0.1 and 1 μM psilocin
Procedure: as §6, §7, §8

[14] = system: IL-1β; assay: IL-1β expression in keratocytes exposed to CM of activated U937 (qPCR); format: cell-based, human; conditions: 0.1 and 1 μM psilocin, 4 h
Procedure: as §6, §7, §8

[15] = system: NMDAR1; assay: NMDAR1 protein expression in ARPE-19 cells (immunofluorescence); format: cell-based
Procedure: as §1, §2

[16] = system: VEGF; assay: VEGF expression in keratocytes exposed to CM of activated U937 (qPCR); format: cell-based, human; conditions: 0.1 and 1 μM psilocin, 4, 10 and 24 h
Procedure: as §6, §7, §8

[17] = system: IL-8; assay: IL-8 expression in keratocytes exposed to CM of activated U937 (qPCR); format: cell-based, human; conditions: 0.1 and 1 μM psilocin, 4 and 10 h
Procedure: as §6, §7, §8

[18] = system: Human corneal epithelial (HCE) cells; assay: Cell viability, MTT test, HCE cells; format: cell-based
Excerpt: as §3, §5

[19] = system: IL-8; assay: IL-8 expression in HCE cells exposed to CM of activated U937 (qPCR); format: cell-based, human; conditions: 0.1 and 1 μM psilocin, 10 h
Procedure: as §6, §7, §8

[20] = system: collagen type I; assay: Collagen type I expression in keratocytes exposed to CM of activated U937 (qPCR); format: cell-based, human; conditions: 0.1 and 1 μM psilocin, 4, 10 and 24 h
Procedure: as §6, §7, §8

[21] = 0.05 μM, alternating medium with/without psilocin every 24 hours (96 hours)
[22] = 3 and 6 days after treatment, 0.01, 0.1 and 1 μM

Sequence of 5-HT2A receptors (P28223 whole entry): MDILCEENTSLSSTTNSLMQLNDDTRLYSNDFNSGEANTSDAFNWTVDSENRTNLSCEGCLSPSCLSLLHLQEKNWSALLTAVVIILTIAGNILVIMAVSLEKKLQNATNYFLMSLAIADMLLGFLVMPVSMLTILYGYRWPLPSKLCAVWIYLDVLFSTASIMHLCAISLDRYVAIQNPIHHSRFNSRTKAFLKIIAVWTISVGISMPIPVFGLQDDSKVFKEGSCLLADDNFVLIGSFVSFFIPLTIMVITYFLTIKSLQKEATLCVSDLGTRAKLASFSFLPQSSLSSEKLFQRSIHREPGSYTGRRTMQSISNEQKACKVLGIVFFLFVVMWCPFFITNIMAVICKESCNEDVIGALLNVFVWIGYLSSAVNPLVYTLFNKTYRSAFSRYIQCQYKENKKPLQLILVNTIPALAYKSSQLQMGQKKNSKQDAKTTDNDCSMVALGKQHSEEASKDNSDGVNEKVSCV

SMILES: CCC(=O)C(C[C@H](C)N(C)C)(c1ccccc1)c1ccccc1 [D methadone, dextromethadone]
- Nootropic signal ([1]; only the lowest tested dose of 5 mg): elicited a nootropic signal
- MTD ([1]; single ascending dose 5-200 mg, nausea and vomiting): 150 mg
- Affinity of 5-HT-2A receptors [2]: nanomolar range
- Avg % Beta Gal+ cells ([3]; D methadone 10 nM): 79.01%
- Total % Beta Gal+ cells ([3]; D methadone 10 nM): 81.29%
- % Beta Gal+ cells, single well/duplicate ([3]; D methadone 10 nM, UVB without treatment Avg 85.63514): 71.875% and 85.71% and 77.19% and 81.25%
- % Beta Gal+ cells, single well/duplicate ([3]; D methadone 500 nM): 82.86% and 82.35% and 76.47% and 91.67%
- Avg % Beta Gal+ cells ([3]; D methadone 500 nM): 83.34%
- Total % Beta Gal+ cells ([3]; D methadone 500 nM): 83.94%
- Plasma BDNF [4]: statistically significant increase in plasma BDNF

SMILES: CN(C)CCc1c[nH]c2cccc(O)c12 [psilocin]
- Expression of 5-HT2A receptor [5]: virtually no effect
- Cytotoxic effect in vitro [6]: does not have a cytotoxic effect
- NMDAR2A subunit protein expression ([7]; psilocin 0.05 μM for 6-days): dramatic increase
- NMDAR2A subunit protein expression ([7]; psilocin 10 μM for 24 hours): slight, not significant increase
- Expression of 5-HT2C [8]: increased after chronic treatment
- IL-12 mRNA expression [9]: significant decrease
- Psilocin in bile [10]: 3102 ng/mL
- Psilocin in cardiac blood [10]: 67 ng/mL
- Psilocin in peripheral blood [10]: 60 ng/mL
- Psilocin in urine [10]: 2230 ng/mL
- Psilocin in vitreous humor [10]: 57 ng/mL
- NMDAR2B expression [11, 21]: decrease of NMDAR2B expression
- NMDAR2B subunit protein expression ([11]; psilocin 0.05 μM for 6-days): did not change
- NMDAR2B subunit protein expression ([11]; psilocin 10 μM for 24 hours): did not change
- Corneal cell viability [12, 22]: significant increase in corneal cell viability
- Cell viability (MTT) ([12]; keratocytes, 0.1 to 1 μM psilocin, up to 6 days): significant increased viability
- TNF-α mRNA expression [13]: very low and comparable to that of cells treated only with CM
- % Beta Gal+ cells, single well/duplicate ([3]; Psilocin 5 nM): 86.67% and 75% and 85.71% and 81.82%
- Avg % Beta Gal+ cells ([3]; Psilocin 5 nM): 82.3%
- Total % Beta Gal+ cells ([3]; Psilocin 5 nM): 64.45%
- Antisenescence effects ([3]; higher doses of psilocin (up 24 microM, experiment not shown)): no antisenescence effects
- Antisenescence effects ([3]; psilocin lower doses (5 nM)): no antisenescence effects
- IL-1β mRNA expression [14]: significant decrease
- NMDAR1 expression [15, 21]: increase of NMDAR1 expression
- NMDAR1 expression ([15]; alternate incubation or psilocin-containing medium replaced every day (FIGS. 11G-11I context)): increased significantly
- NMDAR1 subunit protein expression ([15]; psilocin 0.05 μM for 6-days): dramatic increase
- NMDAR1 subunit protein expression ([15]; psilocin 10 μM for 24 hours): slight, not significant increase
- VEGF I gene expression [16]: did not change significantly
- IL-8 mRNA expression [17]: significant decrease
- Corneal cell viability [18, 22]: significant increase in corneal cell viability
- Cell viability (MTT) ([18]; HCE cells, 0.1 to 1 μM psilocin, up to 6 days): significant increased viability
- IL-8 gene expression [19]: significant down-regulation
- Collagen type I gene expression [20]: did not change significantly

From patent US12616706B2, “Compositions and methods of use comprising substances with neural plasticity actions administered at non-psychedelic/psychotomimetic dosages and formulations” (Arbormentis LLC, priority 2019, dated 2026)
